For this assay, the system named is miR-193a-3p (RNA, miRNA) AACUGGCCUACAAAGUCCCAGU
Kind of assay: single-strand gel shift. As to conditions: 37 °C 30 min, 200 µM Trp; 15% native PAGE, 0.5x TBE. A general note: A gel shift assay detects complexes by their altered migration in electrophoresis.

In the case of `N[C@@H](Cc1c[nH]c2ccccc12)C(=O)O`, the binding entry is on record as “yes”.

Source of the values: paper PMC11336974 (2024).
